Target: T1, Human CB1 receptor (Homo sapiens, UniProt P21554)
T1 construct: host or cells: CHO cells (hCB1/CHO#C3), membrane fraction prepared in house
Test: Human CB1 receptor binding assay ([3H]-CP55940 displacement, hCB1/CHO membrane fraction)
Settings: human CB1 receptor membrane preparation, 30° C. for 90 minutes
Procedure: Human Cb1 Receptor Binding Assay
(1) Preparation of Human Cb1 Receptor (Membrane Fraction):
Human CB1-expressing cell line: hCB1/CHO#C3 (Euroscreen)
Buffer A: 50 mM tris-HCl (pH 7.5) containing ethylenediaminetetraacetic acid (2.5 mM), MgCl2 (5 mM) and sucrose (200 mM)
The receptor-expressing cells cultivated in the above medium were washed with phosphate buffer (×2) and thereto was added Buffer A (2 mL) under ice-cooling or 4° C. (the following procedures were also carried out at the same temperature). The cells were collected by using a cell-scraper, treated by a microtip-type ultrasonicator for 20 seconds (pulse-on: 2 sec, pulse-off: 1 sec) and centrifuged (500×g, 15 min). The supernatant was separated and centrifuged (43000×g, 60 min). The resultant pellet was suspended in Buffer A and homogenized with a potter-type homogenizer. To the homogenate was added an equal volume of 80% glycerol and stored at −80° C.
(2) Procedure of Cb1 Receptor Binding Assay:
Buffer B: 50 mM tris-HCl (pH 7.5) containing ethylenediaminetetraacetic acid (2.5 mM), MgCl2 (5 mM) and bovine serum albumine (2 mg/mL, fatty acid-free, SIGMA-A7030)
Buffer C: 50 mM tris-HCl (pH 7.5) containing ethylenediaminetetraacetic acid (2.5 mM), MgCl2 (5 mM) and bovine serum albumine (2 mg/mL, SIGMA-A7906)
Coating solution: 0.3% ethyleneimine polymer
Radioligand: [^3H]-CP55940 (30 nM/7992 dpm/mL) prepared by diluting 8.3 μM solution of the radioligand with Buffer B
Each well of the assay plate (96-well, Costar Code#3371) was filled with Buffer B (140 μL), a solution of each test compound in dimethylsulfoxide (20 μL, final concentration: […]), radioligand (20 μL) and membrane preparation (20 μL, 0.5 μg/20 μL) and the mixture was incubated at 30° C. for 90 minutes to proceed the binding reaction. The reaction mixture was harvested to each well of a plate presoaked with the above coating solution (Packard Unifilter GF/B, #6005177). The plate was washed with Buffer C (200 μL×10) and dried at 50° C. for 1 hour and Microscinti 40 (40 μL) was added to each well. The bound radiolabel was quantitated by scintillation counting (Top Count NXT, Packard). IC50 value of each test compound against the radioligand-binding to CB1 receptors was calculated on the basis of the quantitated radiolabel activity by using Graphpad Prism 3.02.

T1 sequence (P21554 whole entry): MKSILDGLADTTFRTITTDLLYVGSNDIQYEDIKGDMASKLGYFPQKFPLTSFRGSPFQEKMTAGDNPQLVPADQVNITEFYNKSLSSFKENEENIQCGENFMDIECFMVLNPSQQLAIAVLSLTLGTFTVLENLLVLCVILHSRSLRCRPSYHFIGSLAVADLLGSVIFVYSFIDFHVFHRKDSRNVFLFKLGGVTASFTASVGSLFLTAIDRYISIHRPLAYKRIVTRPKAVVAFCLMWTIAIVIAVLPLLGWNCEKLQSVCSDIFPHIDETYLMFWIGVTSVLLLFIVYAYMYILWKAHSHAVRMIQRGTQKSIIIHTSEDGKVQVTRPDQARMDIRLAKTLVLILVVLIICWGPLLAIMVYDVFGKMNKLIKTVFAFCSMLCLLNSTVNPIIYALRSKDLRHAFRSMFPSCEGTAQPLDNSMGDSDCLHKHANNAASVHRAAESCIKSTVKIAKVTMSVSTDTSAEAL

| SMILES | IC50 (nM) |
| --- | --- |
| N#Cc1ccccc1-c1cnc2c(C(=O)NN3CCCCCC3)cnn2c1-c1ccc(Cl)cc1 [Example 252] | + + |
| CN(NC(=O)c1c(C(F)(F)F)nn2c(-c3ccc(Cl)cc3)c(-c3ccccc3Cl)cnc12)c1ccccn1 [Example 309] | + + + |
| Cc1nn2c(-c3ccc(Cl)cc3)c(-c3ccccc3Cl)cnc2c1C(=O)N[C@H]1CCS(=O)(=O)C1 [Example 185] | + + |
| O=C(NC1CCCCC1)c1cnn2c(-c3ccc(Cl)cc3)c(-c3ccccc3Cl)cnc12 [Example 10] | + + |
| O=C(NC1CSC1)c1cnn2c(-c3ccc(Cl)cc3)c(-c3ccccc3Cl)cnc12 [Example 324] | + + |
| Cc1nn2c(-c3ccc(C(F)(F)F)cc3)c(-c3ccccc3Cl)cnc2c1S(=O)(=O)N1CCCC1 [Example 238, 6-(2-chlorophenyl)-7-(4-trifluoromethylphenyl)-2-methyl-3-(1-pyrrolidinyl)sulfonylpyrazolo[1,5-a]pyrimidine] | + + |
| Cc1nn2c(-c3ccc(Cl)cc3F)c(-c3ccccc3C#N)cnc2c1C(=O)NN1CCCC1 [Example 427] | + + |
| Cc1nn2c(-c3ccc(Cl)s3)c(-c3ccccc3Cl)cnc2c1C(=O)NN(C)c1ccccn1 [Example 410] | + + |
| CC(=O)Nc1nn2c(-c3ccc(Cl)cc3)c(-c3ccccc3Cl)cnc2c1C(=O)NC1CCS(=O)(=O)C1 (stereo not shown) [Example 224] | + + |
| CN(NC(=O)c1cnn2c(-c3ccc(Cl)cc3)c(-c3ccccc3C#N)cnc12)c1cccc(Cl)c1 [Example 253] | + + + |
| CC(C)CNC(=O)c1cnn2c(-c3ccc(C(F)(F)F)cc3)c(-c3ccccc3Cl)cnc12 [Example 287] | + + |
| Cc1nn2c(-c3ccc(Cl)cc3)c(-c3ccccc3Cl)cnc2c1C(=O)CN1CCS(=O)(=O)CC1 [Example 462] | + + |
| CN(NC(=O)c1c(N(C)S(C)(=O)=O)nn2c(-c3ccc(Cl)cc3)c(-c3ccccc3Cl)cnc12)c1ccccn1 [Example 452] | + + + |

— patent US8188097B2, “Pyrazolo[1,5-A]pyrimidine compounds” (Mitsubishi Tanabe Pharma Corporation, priority 2005, dated 2012)
